Assay results as given in ChEMBL document CHEMBL1909046, “DrugMatrix in vitro pharmacology data”.

How the values were obtained:
[1] = biological target: T1, Muscarinic acetylcholine receptor M2 (Homo sapiens, UniProt P08172); format: cell membranes, CHO-K1, Membrane; conditions: cho-k1; also: in other assays of this panel Not Active means under 50% inhibition at 10 µM
T1 sequence (P08172 whole entry): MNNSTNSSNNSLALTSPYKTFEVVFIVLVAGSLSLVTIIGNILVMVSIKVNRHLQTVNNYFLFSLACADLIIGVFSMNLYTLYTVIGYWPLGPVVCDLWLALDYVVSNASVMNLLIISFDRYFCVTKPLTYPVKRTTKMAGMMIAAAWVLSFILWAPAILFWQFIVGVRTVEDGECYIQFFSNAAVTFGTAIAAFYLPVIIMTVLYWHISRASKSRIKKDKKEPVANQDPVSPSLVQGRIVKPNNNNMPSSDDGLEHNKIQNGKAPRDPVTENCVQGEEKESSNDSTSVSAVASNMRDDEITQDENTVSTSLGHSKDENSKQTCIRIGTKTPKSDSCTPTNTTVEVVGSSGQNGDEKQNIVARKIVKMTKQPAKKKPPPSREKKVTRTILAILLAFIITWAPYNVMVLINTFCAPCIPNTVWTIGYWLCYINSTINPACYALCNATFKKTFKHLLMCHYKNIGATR

Cannabinoid receptor 1 = Cannabinoid receptor 1 (Homo sapiens, UniProt P21554); format: cell membranes, Membrane; conditions: chem-1; also: in other assays of this panel Not Active means under 50% inhibition at 10 µM
[2] = biological target: Beta-2 adrenergic receptor (Homo sapiens, UniProt P07550); assay: DRUGMATRIX: Adrenergic beta2 radioligand binding (ligand: [3H] CGP-12177); format: cell membranes, CHO, Membrane; conditions: cho; Not Active = under 50% inhibition at 10 µM
[3] = biological target: T2, Amine oxidase [flavin-containing] A (Homo sapiens, UniProt P21397); assay: DRUGMATRIX: Monoamine Oxidase MAO-A enzyme inhibition (substrate: Kynuramine); parameters: species or system BTI-TN-5B1-4; conditions: Not Active = under 50% inhibition at 10 µM
T2 sequence (P21397 whole entry): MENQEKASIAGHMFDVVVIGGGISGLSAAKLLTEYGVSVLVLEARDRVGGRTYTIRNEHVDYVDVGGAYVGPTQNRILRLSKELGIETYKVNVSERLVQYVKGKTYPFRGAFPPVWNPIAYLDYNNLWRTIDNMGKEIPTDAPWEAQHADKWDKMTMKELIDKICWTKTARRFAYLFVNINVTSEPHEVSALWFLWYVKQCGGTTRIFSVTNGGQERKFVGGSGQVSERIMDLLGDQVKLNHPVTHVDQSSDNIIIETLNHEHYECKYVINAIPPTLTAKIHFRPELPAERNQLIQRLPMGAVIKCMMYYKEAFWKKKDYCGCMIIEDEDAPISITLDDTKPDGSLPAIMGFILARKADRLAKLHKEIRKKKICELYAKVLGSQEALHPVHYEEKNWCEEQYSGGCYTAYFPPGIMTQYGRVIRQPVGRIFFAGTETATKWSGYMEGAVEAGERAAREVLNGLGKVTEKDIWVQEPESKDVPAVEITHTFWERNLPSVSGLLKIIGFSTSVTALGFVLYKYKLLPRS

[4] = DRUGMATRIX: Interleukin IL-1 radioligand binding (ligand: [125I] interleukin 1beta); format: cell membranes, Membrane; conditions: nih3t3; Not Active = under 50% inhibition at 10 µM
Carbonic anhydrase 2 = Carbonic anhydrase 2 (Homo sapiens, UniProt P00918); assay: DRUGMATRIX: Carbonic Anhydrase II enzyme inhibition (substrate: 4-Nitrophenyl acetate (4-NPA)); format: tissue-based, Erythrocyte; conditions: erythrocyte; Not Active = under 50% inhibition at 10 µM
[5] = biological target: T3, Vasoactive intestinal polypeptide receptor 1 (Homo sapiens, UniProt P32241); format: cell membranes, Membrane; conditions: ht-29; also: in other assays of this panel Not Active means under 50% inhibition at 10 µM
T3 sequence (P32241 whole entry): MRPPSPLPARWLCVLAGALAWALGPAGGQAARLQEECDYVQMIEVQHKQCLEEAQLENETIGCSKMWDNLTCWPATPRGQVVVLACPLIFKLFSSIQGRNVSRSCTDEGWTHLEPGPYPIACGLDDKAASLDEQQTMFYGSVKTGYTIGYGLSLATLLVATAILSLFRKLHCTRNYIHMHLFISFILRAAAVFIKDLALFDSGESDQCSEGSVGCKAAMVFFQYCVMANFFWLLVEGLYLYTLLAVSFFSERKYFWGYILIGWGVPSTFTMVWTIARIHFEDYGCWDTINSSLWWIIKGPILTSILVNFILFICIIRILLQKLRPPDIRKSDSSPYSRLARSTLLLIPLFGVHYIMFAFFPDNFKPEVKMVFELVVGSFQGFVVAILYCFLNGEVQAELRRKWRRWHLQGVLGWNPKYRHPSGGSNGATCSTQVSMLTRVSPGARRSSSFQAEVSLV

Chain of Cannabinoid receptor 1 (P21554 whole entry): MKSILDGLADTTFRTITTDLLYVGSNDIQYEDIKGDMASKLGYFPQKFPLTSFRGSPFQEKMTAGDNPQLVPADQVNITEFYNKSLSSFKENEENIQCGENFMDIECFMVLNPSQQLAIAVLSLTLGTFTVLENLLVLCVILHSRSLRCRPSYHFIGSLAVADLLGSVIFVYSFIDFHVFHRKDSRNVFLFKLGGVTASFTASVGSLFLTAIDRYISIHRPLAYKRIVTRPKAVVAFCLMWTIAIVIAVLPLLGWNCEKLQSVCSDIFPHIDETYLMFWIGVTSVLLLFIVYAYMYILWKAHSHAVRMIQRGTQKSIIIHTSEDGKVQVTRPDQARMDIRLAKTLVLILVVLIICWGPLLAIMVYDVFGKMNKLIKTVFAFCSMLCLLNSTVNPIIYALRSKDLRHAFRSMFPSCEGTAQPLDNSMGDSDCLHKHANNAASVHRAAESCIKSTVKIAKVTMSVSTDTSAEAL
Chain of Beta-2 adrenergic receptor (P07550 whole entry): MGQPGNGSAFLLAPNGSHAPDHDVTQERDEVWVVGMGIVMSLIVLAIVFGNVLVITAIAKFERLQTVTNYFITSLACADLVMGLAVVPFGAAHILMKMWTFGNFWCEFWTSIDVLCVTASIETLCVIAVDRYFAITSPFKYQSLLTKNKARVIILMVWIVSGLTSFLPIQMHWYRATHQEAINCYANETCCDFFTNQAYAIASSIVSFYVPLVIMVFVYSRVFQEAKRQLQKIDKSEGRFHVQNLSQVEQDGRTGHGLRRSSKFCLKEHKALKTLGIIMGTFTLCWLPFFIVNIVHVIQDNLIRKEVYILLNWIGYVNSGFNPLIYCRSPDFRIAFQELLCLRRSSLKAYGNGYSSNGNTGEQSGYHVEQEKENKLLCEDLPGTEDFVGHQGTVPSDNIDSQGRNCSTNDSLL

| Compound | IC50 [1] | IC50 (Cannabinoid receptor 1) | IC50 [2] | IC50 ([3]; bti-tn-5b1-4) | IC50 [4] | Ki [4] | IC50 (Carbonic anhydrase 2) | IC50 [5] | IC50 ([3]; read-out: IC50) |
| --- | --- | --- | --- | --- | --- | --- | --- | --- | --- |
| O=C(O)Cc1ccc(-c2ccccc2)cc1 [FELBINAC] | Not Active | Not Active | Not Active | Not Active | Not Active | Not Active | Not Active | Not Active |  |
| CCOC(=O)C1=C(C)NC(C)=C(C(=O)OC)C1c1cccc(Cl)c1Cl (configuration not stated) [FELODIPINE] | Not Active | Not Active | Not Active | Not Active | Not Active | Not Active | Not Active | Not Active |  |
| CC(C(=O)O)c1ccc(-c2ccccc2)c(F)c1 (configuration not stated) [FLURBIPROFEN] | Not Active | Not Active | Not Active | Not Active | Not Active | Not Active | Not Active | Not Active |  |
| Cc1cn[nH]c1 [FOMEPIZOLE] | Not Active | Not Active | Not Active | Not Active | Not Active | Not Active | Not Active | Not Active |  |
| NC[C@@H]1O[C@H](O[C@H]2[C@@H](O)[C@H](O[C@@H]3[C@@H](O)[C@H](N)C[C@H](N)[C@H]3O[C@H]3O[C@H](CN)[C@@H](O)[C@H](O)[C@H]3N)O[C@@H]2CO)[C@H](N)[C@@H](O)[C@@H]1O [FRAMYCETIN] | Not Active | Not Active | Not Active | Not Active | Not Active | Not Active | Not Active | Not Active |  |
| C[C@H]([C@](O)(Cn1cncn1)c1ccc(F)cc1F)S(C)(=O)=O [GENACONAZOLE] | Not Active | Not Active | Not Active | Not Active | Not Active | Not Active | Not Active | Not Active |  |
| Cc1cnc(C(=O)NCCc2ccc(S(=O)(=O)NC(=O)NC3CCCCC3)cc2)cn1 [GLIPIZIDE] | Not Active | Not Active | Not Active | Not Active | Not Active | Not Active | Not Active | Not Active |  |
| Cc1c(F)c(N2CCNC(C)C2)cc2c1c(=O)c(C(=O)O)cn2C1CC1 (configuration not stated) [GREPAFLOXACIN] | Not Active | Not Active | Not Active | Not Active | Not Active | Not Active | Not Active | Not Active |  |
| COc1ccccc1OCC(O)CO (configuration not stated) [GUAIFENESIN] | Not Active | Not Active | Not Active | Not Active | Not Active | Not Active | Not Active | Not Active |  |
| N=C(N)N/N=C/c1c(Cl)cccc1Cl [GUANABENZ] | Not Active | Not Active | Not Active |  | Not Active | Not Active | Not Active | Not Active | 1790 nM |
| C[C@]12CCC(=O)C=C1CC[C@@H]1[C@@H]2[C@@H](O)C[C@@]2(C)[C@H]1CC[C@]2(O)C(=O)CO [HYDROCORTISONE] | Not Active | Not Active | Not Active | Not Active | Not Active | Not Active | Not Active | Not Active |  |
| C/C=C\c1ccc(O)c(OC)c1 [ISOEUGENOL] | Not Active | Not Active | Not Active | Not Active | Not Active | Not Active | Not Active | Not Active |  |
| NC[C@H]1O[C@H](O[C@H]2[C@H](O)[C@@H](O[C@H]3O[C@H](CO)[C@@H](O)[C@H](N)[C@H]3O)[C@H](N)C[C@@H]2N)[C@H](O)[C@@H](O)[C@@H]1O [KANAMYCIN] | Not Active | Not Active | Not Active | Not Active | Not Active | Not Active | Not Active | Not Active |  |
| CC[C@H](C)C(=O)O[C@H]1C[C@@H](C)C=C2C=C[C@H](C)[C@H](CC[C@@H]3C[C@@H](O)CC(=O)O3)[C@H]21 [LOVASTATIN] | Not Active | Not Active | Not Active | Not Active | Not Active | Not Active | Not Active | Not Active |  |
| CC(C(=O)O)c1ccc(CC2CCCC2=O)cc1 (configuration not stated) [LOXOPROFEN] | Not Active | Not Active | Not Active | Not Active | Not Active | Not Active | Not Active | Not Active |  |
| Cc1cccc(Nc2ccccc2C(=O)O)c1C [MEFENAMIC ACID] | Not Active | Not Active | Not Active | Not Active | Not Active | Not Active | Not Active | Not Active |  |
| CC(=O)O[C@]1(C(C)=O)CC[C@H]2[C@@H]3C=C(C)C4=CC(=O)CC[C@]4(C)[C@H]3CC[C@@]21C [MEGESTROL ACETATE] | Not Active | Not Active | Not Active | Not Active | Not Active | Not Active | Not Active | Not Active |  |
| COc1ccccc1OCC(O)COC(N)=O (configuration not stated) [METHOCARBAMOL] | Not Active | Not Active | Not Active | Not Active | Not Active | Not Active | Not Active | Not Active |  |
| CN(Cc1cnc2nc(N)nc(N)c2n1)c1ccc(C(=O)N[C@@H](CCC(=O)O)C(=O)O)cc1 [METHOTREXATE] | Not Active | Not Active | Not Active | Not Active | Not Active | Not Active | Not Active | Not Active |  |
| COC(=O)c1ccccc1O [METHYL SALICYLATE] | Not Active | Not Active | Not Active | Not Active | Not Active | Not Active | Not Active | Not Active |  |
| O=C(O)c1cccnc1 [NIACIN] | Not Active | Not Active | Not Active | Not Active | Not Active | Not Active | Not Active | Not Active |  |
| CNC(=C[N+](=O)[O-])NCCSCc1csc(CN(C)C)n1 [NIZATIDINE] | Not Active | Not Active | Not Active | Not Active | Not Active | Not Active | Not Active | Not Active |  |
| C[C@]12C/C(=C/O)C(=O)C[C@@H]1CC[C@@H]1[C@@H]2CC[C@@]2(C)[C@H]1CC[C@]2(C)O [OXYMETHOLONE] | Not Active | Not Active | Not Active | Not Active | Not Active | Not Active | Not Active | Not Active |  |
| CC(C)(CO)C(O)C(=O)NCCCO (configuration not stated) [PANTHENOL] | Not Active | Not Active | Not Active | Not Active | Not Active | Not Active | Not Active | Not Active |  |
